From patent US20030073618A1, “Compounds comprising disulfide-containing peptides and nitrogenous bases, and medical uses thereof” (priority 2001, published 2003)
Read-outs that look alike come from different tables or passages of the source.

System: mycobacterium tuberculosis
Conditions: for CD4+ / CD4/CD8 / CD8+ / IL-1 / IL-4 / IL-6 / IL-8 / IL-12 / Lymphocytes: blood immune test; for ESR / Erythrocytes / Hemoglobin / Leukocytes / Monocytes / Platelets / Segmented neutrophils / Stab neutrophils: general blood test
For IL-12 in this document: unit not given here.
For IL-4 in this document: unit not given here.
For IL-6 in this document: unit not given here.
For IL-8 in this document: unit not given here.

Compound: N[C@@H](CCC(=O)N[C@@H](CSSC[C@H](NC(=O)CC[C@H](NP(=O)(O)OC[C@H]1O[C@@H](n2cnc3c(=O)[nH]cnc32)[C@H](O)[C@@H]1O)C(=O)O)C(=O)NCC(=O)[O-])C(=O)NCC(=O)[O-])C(=O)O.[Li+].[Li+] [Example 16]
- CD4+ (19.12.98): 860
- CD4/CD8 (19.12.98): 1.53
- CD8+ (19.12.98): 563
- IL-1 (19.12.98): 46
- IL-4 (19.12.98): 37
- IL-6 (19.12.98): 44
- IL-8 (19.12.98): 50
- IL-12 (19.12.98): 39
- Lymphocytes (19.12.98): 1400
- CD4+ (20.10.98): 199
- CD4/CD8 (20.10.98): 0.56
- CD8+ (20.10.98): 357
- IL-1 (20.10.98): 22
- IL-4 (20.10.98): 32
- IL-6 (20.10.98): 16
- IL-8 (20.10.98): 23
- IL-12 (20.10.98): 14
- Lymphocytes (20.10.98): 832
- CD4+ (21.01.99): 892
- CD4/CD8 (21.01.99): 1.50
- CD8+ (21.01.99): 594
- IL-1 (21.01.99): 39
- IL-4 (21.01.99): 34
- IL-6 (21.01.99): 39
- IL-8 (21.01.99): 48
- IL-12 (21.01.99): 47
- Lymphocytes (21.01.99): 1680
- CD4+ (21.11.98): 527
- CD4/CD8 (21.11.98): 1.25
- CD8+ (21.11.98): 422
- IL-1 (21.11.98): 29
- IL-4 (21.11.98): 30
- IL-6 (21.11.98): 29
- IL-8 (21.11.98): 45
- IL-12 (21.11.98): 28
- Lymphocytes (21.11.98): 1350
- ESR (19.12.98): 13
- Erythrocytes (19.12.98): 4.3
- Hemoglobin (19.12.98): 132
- Leukocytes (19.12.98): 5.2
- Monocytes (19.12.98): 2
- Platelets (19.12.98): 230
- Segmented neutrophils (19.12.98): 51
- Stab neutrophils (19.12.98): 1
- ESR (20.10.98): 50
- Erythrocytes (20.10.98): 3.7
- Hemoglobin (20.10.98): 108
- Leukocytes (20.10.98): 9.9
- Monocytes (20.10.98): 12
- Platelets (20.10.98): 260
- Segmented neutrophils (20.10.98): 57
- Stab neutrophils (20.10.98): 12
- ESR (21.01.99): 11
- Erythrocytes (21.01.99): 4.2
- Hemoglobin (21.01.99): 128
- Leukocytes (21.01.99): 6.8
- Monocytes (21.01.99): 5
- Platelets (21.01.99): 210
- Segmented neutrophils (21.01.99): 50
- Stab neutrophils (21.01.99): 3
- ESR (21.11.98): 27
- Erythrocytes (21.11.98): 4.2
- Hemoglobin (21.11.98): 128
- Leukocytes (21.11.98): 5.2
- Monocytes (21.11.98): 4
- Platelets (21.11.98): 210
- Segmented neutrophils (21.11.98): 53
- Stab neutrophils (21.11.98): 6
